Test system: SURF1 deficient fibroblasts
Assay: ROS levels, CellROX Deep Red Flow Cytometry Assay
Type: cell-based, human
Conditions: PT1 72 hrs vs DMSO
Method: Methods: SURF1, POLG, and NGLY1 patient cells were supplemented with PT1 or DMSO (untreated control) for 48 hrs (n=3) and ATP levels measured by the CellTiter-Glo ATP Assay or for 72 hrs (n=3) and ROS levels were measured by the CellROX Deep Red Flow Cytometry Assay. Results were normalized to total protein concentration. Data are represented as the mean±standard error of the mean. Statistical significance was measured to p<0.05.

Cc1cc(-c2ccc(C=C3SC(=S)N(c4ccc(Cl)c(C(=O)O)c4)C3=O)o2)c([N+](=O)[O-])cc1C [PT1]
reduction in ROS levels: 10%

From patent US12377077B2, “Methods and formulations to treat mitochondrial dysfunction” (The Board of Trustees of the Leland Stanford Junior …, priority 2018, dated 2025)
